Read-outs that look alike come from different tables or passages of the source.
Assays:
[1] = test system: wheat leaf blight-causing microorganisms; experiment: Anti-bacterial effect on wheat leaf blight-causing microorganisms (PDA plate, mycelial growth inhibition); assay type: cell-based, Septoria tritici; conditions: 1.25 mg/L in PDA plate medium, 25° C., 14 days
Experimental: In Test Examples, an anti-bacterial effect of a compound in accordance with the present invention on the wheat leaf blight-causing microorganisms was tested, and was compared with the anti-bacterial effect of a comparative compound (1).
A dimethyl sulfoxide solution (0.6 ml) containing a compound in accordance with the present invention was added to a PDA medium (potato dextrose agar medium) (60 ml) having about 60° C., and the resultant mixture was mixed thoroughly in a 100-ml conical flask. The mixture was poured into a dish, and was solidified. […]
On the other hand, a subject microorganism previously cultured on a plate medium was cut out with use of a cork borer whose diameter was 4 mm, and the wheat leaf blight-causing microorganism on the plate medium thus cut out was inoculated to the chemical-containing plate medium described above. After such inoculation, the chemical-containing plate medium was incubated at 25° C. for 14 days, and then diameters of its flora were measured. A % mycelial growth inhibition was calculated with use of the formula. R=100(dc−dt)/dc (where R=% mycelial extension inhibition, dc=flora diameter in untreated plate, dt=flora diameter in treated plate)
The results obtained as described above were evaluated on a five-point scale according to the following criteria.
• 5: % Mycerial growth inhibition of 80% or higher • 4: % Mycerial growth inhibition of less than 80 to 60% or higher • 3: % Mycerial growth inhibition of less than 60 to 40% or higher • 2: % Mycerial growth inhibition of less than 40 to 20% or higher • 1: % Mycerial growth inhibition of less than 20%

[2] = test system: wheat-brown-rust-causing microorganisms; experiment: Controlling effect on wheat brown rust (spray, pot test); assay type: in vivo, Puccinia recondita; conditions: 1 mg/L sprayed at 1,000 L/ha, wheat NORIN No. 61, 9 to 14 days after inoculation
Experimental: Onto a wheat plant (cultivar: NORIN No. 61) grown to the two-leaf stage with use of a square plastic pot (6 cm×6 cm), a wettable formulation such as Formulation Example 1 which was diluted and suspended in water at a concentration of 1 mg/L was sprayed at a rate of 1,000 L/ha. The sprayed leaves were air-dried, and inoculated with spore suspension of wheat-brown-rust-causing microorganisms (adjusted at 200 spores/vision, […] was added at 60 ppm) by spraying, and kept at 25° C. and a high humidity for 48 hours. Thereafter, the plant was kept in a greenhouse. Nine to fourteen days after inoculation, the wheat brown rust lesion degree was evaluated. The protective value was calculated by the following equation. Protective value (%)=(1-mean lesion degree in sprayed plot/mean lesion degree in unsprayed plot)×100 [table] [table]

[3] = test system: Wheat Septoria nodorum blotch microorganism (Phaeosphaeria nodorum); experiment: Anti-bacterial effect on various microorganisms (plate medium), P.n; assay type: cell-based
[4] = test system: Wheat eye spot (Pseudocercoporella herpotrichoides); experiment: Anti-bacterial effect on various microorganisms (plate medium), P.h; assay type: cell-based
[5] = test system: Wheat fusarium blight (Fusarium graminearum); assay type: cell-based
[6] = test system: Barley loose smut (Ustilago nuda); experiment: Anti-bacterial effect on various microorganisms (plate medium), U.n; assay type: cell-based
[7] = test system: Rice blast (Pyricularia oryzae); assay type: cell-based
[8] = test system: Rice bakanae disease (Giberella fujikuroi); experiment: Anti-bacterial effect on various microorganisms (plate medium), G.f; assay type: cell-based
[9] = test system: Alternaria blotch (Alternaria alternata); experiment: Anti-bacterial effect on various microorganisms (plate medium), A.m; assay type: cell-based
[10] = test system: Sclerotinia rot (Sclerotinia sclerotiorum); experiment: Anti-bacterial effect on various microorganisms (plate medium), S.s; assay type: cell-based
[11] = test system: Gray mold (Botritis cinerea); experiment: Anti-bacterial effect on various microorganisms (plate medium), B.c; assay type: cell-based
[12] = test system: Cucumber fusarium wilt (Fusarium oxysporum); experiment: Anti-bacterial effect on various microorganisms (plate medium), F.c; assay type: cell-based
[13] = test system: Barley leaf blotch (Rhynchosporium secalis); experiment: Anti-bacterial effect on various microorganisms (plate medium), R. sec; assay type: cell-based
[14] = test system: Wheat pink snow mold (Microdochium nivale); experiment: Anti-bacterial effect on various microorganisms (plate medium), M.n; assay type: cell-based
[15] = test system: Rice bacterial seeding blight (Rhizopus oryzae); experiment: Anti-bacterial effect on various microorganisms (plate medium), R.o; assay type: cell-based

Row | Structure (SMILES) | Growth inhibition grade [1] | Protective value [2] | Growth inhibition grade P.n ([3]; 1.25 mg/L) | Growth inhibition grade P.n ([3]; 5 mg/L) | Growth inhibition grade P.h ([4]; 1.25 mg/L) | Growth inhibition grade P.h ([4]; 5 mg/L) | Growth inhibition grade F.g ([5]; 1.25 mg/L) | Growth inhibition grade F.g ([5]; 5 mg/L) | Growth inhibition grade U.n ([6]; 1.25 mg/L) | Growth inhibition grade U.n ([6]; 5 mg/L) | Growth inhibition grade P.o ([7]; 1.25 mg/L) | Growth inhibition grade P.o ([7]; 5 mg/L) | Growth inhibition grade G.f ([8]; 1.25 mg/L) | Growth inhibition grade G.f ([8]; 5 mg/L) | Growth inhibition grade A.m ([9]; 1.25 mg/L) | Growth inhibition grade A.m ([9]; 5 mg/L) | Growth inhibition grade S.s ([10]; 1.25 mg/L) | Growth inhibition grade S.s ([10]; 5 mg/L) | Growth inhibition grade B.c ([11]; 1.25 mg/L) | Growth inhibition grade B.c ([11]; 5 mg/L) | further results
1 | COC[C@]1(CBr)CC[C@@H](Cc2ccc(F)cc2)[C@]1(O)Cn1cncn1 (racemic) [Compound I-198, (1RS,2RS,5SR)-5-(4-fluorobenzyl)-2-bromomethyl-2-methoxymethyl-1H-[1,2,4]triazole-1-ylmethylcyclopentanol] | 5 (% Mycerial growth inhibition of 80% or higher) | 4 (61 to 80) | 4 (% Mycerial growth inhibition of less than 80 to 60% or higher) | 5 (% Mycerial growth inhibition of 80% or higher) | 4 (% Mycerial growth inhibition of less than 80 to 60% or higher) | 5 (% Mycerial growth inhibition of 80% or higher) | 4 (% Mycerial growth inhibition of less than 80 to 60% or higher) | 5 (% Mycerial growth inhibition of 80% or higher) | 4 (% Mycerial growth inhibition of less than 80 to 60% or higher) | 5 (% Mycerial growth inhibition of 80% or higher) | 5 (% Mycerial growth inhibition of 80% or higher) | 5 (% Mycerial growth inhibition of 80% or higher) | 5 (% Mycerial growth inhibition of 80% or higher) | 5 (% Mycerial growth inhibition of 80% or higher) | 4 (% Mycerial growth inhibition of less than 80 to 60% or higher) | 5 (% Mycerial growth inhibition of 80% or higher) | 5 (% Mycerial growth inhibition of 80% or higher) | 5 (% Mycerial growth inhibition of 80% or higher) | 5 (% Mycerial growth inhibition of 80% or higher) | 5 (% Mycerial growth inhibition of 80% or higher) | Growth inhibition grade F.c ([12]; 1.25 mg/L): 5 (% Mycerial growth inhibition of 80% or higher); Growth inhibition grade F.c ([12]; 5 mg/L): 5 (% Mycerial growth inhibition of 80% or higher); Growth inhibition grade R. sec ([13]; 1.25 mg/L): 5 (% Mycerial growth inhibition of 80% or higher); Growth inhibition grade R. sec ([13]; 5 mg/L): 5 (% Mycerial growth inhibition of 80% or higher); Growth inhibition grade M.n ([14]; 1.25 mg/L): 4 (% Mycerial growth inhibition of less than 80 to 60% or higher); Growth inhibition grade M.n ([14]; 5 mg/L): 5 (% Mycerial growth inhibition of 80% or higher); Growth inhibition grade R.o ([15]; 1.25 mg/L): 5 (% Mycerial growth inhibition of 80% or higher); Growth inhibition grade R.o ([15]; 5 mg/L): 5 (% Mycerial growth inhibition of 80% or higher)
2 | COC[C@]1(CBr)CC[C@@H](Cc2ccccc2)[C@]1(O)Cn1cncn1 (racemic) [Compound I-203, (1RS,2RS,5SR)-5-benzyl-2-bromomethyl-2-methoxymethyl-1H-[1,2,4]triazole-1-ylmethylcyclopentanol] | 4 (% Mycerial growth inhibition of less than 80 to 60% or higher) | 4 (61 to 80) | 4 (% Mycerial growth inhibition of less than 80 to 60% or higher) | 5 (% Mycerial growth inhibition of 80% or higher) | 4 (% Mycerial growth inhibition of less than 80 to 60% or higher) | 5 (% Mycerial growth inhibition of 80% or higher) | 5 (% Mycerial growth inhibition of 80% or higher) | 5 (% Mycerial growth inhibition of 80% or higher) | 5 (% Mycerial growth inhibition of 80% or higher) | 5 (% Mycerial growth inhibition of 80% or higher) | 5 (% Mycerial growth inhibition of 80% or higher) | 5 (% Mycerial growth inhibition of 80% or higher) | 5 (% Mycerial growth inhibition of 80% or higher) | 5 (% Mycerial growth inhibition of 80% or higher) | 4 (% Mycerial growth inhibition of less than 80 to 60% or higher) | 5 (% Mycerial growth inhibition of 80% or higher) | 5 (% Mycerial growth inhibition of 80% or higher) | 5 (% Mycerial growth inhibition of 80% or higher) | 5 (% Mycerial growth inhibition of 80% or higher) | 5 (% Mycerial growth inhibition of 80% or higher) | Growth inhibition grade F.c ([12]; 1.25 mg/L): 5 (% Mycerial growth inhibition of 80% or higher); Growth inhibition grade F.c ([12]; 5 mg/L): 5 (% Mycerial growth inhibition of 80% or higher); Growth inhibition grade R. sec ([13]; 1.25 mg/L): 5 (% Mycerial growth inhibition of 80% or higher); Growth inhibition grade R. sec ([13]; 5 mg/L): 5 (% Mycerial growth inhibition of 80% or higher); Growth inhibition grade M.n ([14]; 1.25 mg/L): 5 (% Mycerial growth inhibition of 80% or higher); Growth inhibition grade M.n ([14]; 5 mg/L): 5 (% Mycerial growth inhibition of 80% or higher); Growth inhibition grade R.o ([15]; 1.25 mg/L): 4 (% Mycerial growth inhibition of less than 80 to 60% or higher); Growth inhibition grade R.o ([15]; 5 mg/L): 5 (% Mycerial growth inhibition of 80% or higher)
3 | CCOC[C@]1(CCl)CC[C@@H](Cc2ccc(F)cc2)[C@]1(O)Cn1cncn1 (racemic) [Compound I-226, (1RS,2RS,5SR)-5-(4-fluorobenzyl)-2-chloromethyl-2-ethoxymethyl-1H-[1,2,4]triazole-1-ylmethylcyclopentanol] | 5 (% Mycerial growth inhibition of 80% or higher) | 4 (61 to 80) | 5 (% Mycerial growth inhibition of 80% or higher) | 5 (% Mycerial growth inhibition of 80% or higher) | 4 (% Mycerial growth inhibition of less than 80 to 60% or higher) | 5 (% Mycerial growth inhibition of 80% or higher) | 5 (% Mycerial growth inhibition of 80% or higher) | 5 (% Mycerial growth inhibition of 80% or higher) | 5 (% Mycerial growth inhibition of 80% or higher) | 5 (% Mycerial growth inhibition of 80% or higher) | 5 (% Mycerial growth inhibition of 80% or higher) | 5 (% Mycerial growth inhibition of 80% or higher) | 5 (% Mycerial growth inhibition of 80% or higher) | 5 (% Mycerial growth inhibition of 80% or higher) | 4 (% Mycerial growth inhibition of less than 80 to 60% or higher) | 5 (% Mycerial growth inhibition of 80% or higher) | 5 (% Mycerial growth inhibition of 80% or higher) | 5 (% Mycerial growth inhibition of 80% or higher) | 5 (% Mycerial growth inhibition of 80% or higher) | 5 (% Mycerial growth inhibition of 80% or higher) | Growth inhibition grade F.c ([12]; 1.25 mg/L): 5 (% Mycerial growth inhibition of 80% or higher); Growth inhibition grade F.c ([12]; 5 mg/L): 5 (% Mycerial growth inhibition of 80% or higher); Growth inhibition grade R. sec ([13]; 1.25 mg/L): 5 (% Mycerial growth inhibition of 80% or higher); Growth inhibition grade R. sec ([13]; 5 mg/L): 5 (% Mycerial growth inhibition of 80% or higher); Growth inhibition grade M.n ([14]; 1.25 mg/L): 5 (% Mycerial growth inhibition of 80% or higher); Growth inhibition grade M.n ([14]; 5 mg/L): 5 (% Mycerial growth inhibition of 80% or higher); Growth inhibition grade R.o ([15]; 1.25 mg/L): 5 (% Mycerial growth inhibition of 80% or higher); Growth inhibition grade R.o ([15]; 5 mg/L): 5 (% Mycerial growth inhibition of 80% or higher)

From patent US9241488B2, “Azole derivative, method for producing azole derivative, and intermediate compound” (KUREHA CORPORATION, priority 2011, dated 2016)
